Like-named read-outs stand apart in the source and are kept apart here.
Tests used:
[1] = Pharmacokinetics in BALB/C nude mice after intragastric administration; assay type: in vivo; settings: female, mouse, plasma, po; for Vd/F: read-out: Apparent volume of distribution Vz/F; for AUC: read-out: Area under curve AUC; for CL/F: read-out: Clearance rate CL/F; for half-life: read-out: Half-life t1/2 (converted); for Cmax: read-out: Plasma concentration Cmax; for MRT: read-out: Residence time MRT
Description: BALB/C nude mice were used as test animals. The drug concentration in plasma at different time points was determined by LC/MS/MS method after intragastric administration of the compounds of the present disclosure to BALB/C nude mice. The pharmacokinetic behavior and characteristics of the compounds of the present disclosure was studied and evaluated in BALB/C nude mice.
Sixty-three BALB/C nude mice (female, equally divided into seven groups, nine mice per group) were purchased from Jiesijie Laboratory Animal Co., LTD. (Certificate No.: SCXK (Shanghai)2013-0006).
For the compound of Example 14, an appropriate amount of the compound was weighed, followed by the addition of 5% of DMSO, 5% of tween 80 and 90% of normal saline by volume to obtain a colorless, clear and transparent solution (0.1 mg/mL).
For the compounds of Examples 1, 15 and 39 to 42, an appropriate amount of the compound was weighed, followed by the addition of 9% of PEG400, 0.5% of tween 80 and 90.5% of 0.5% CMC-Na by volume to obtain a colorless, clear and transparent solution (1.5 mg/mL).
After an overnight fast, the test compounds were intragastrically administered at an administration volume of 0.2 ml/10 g respectively. The administration dose of the compound of Example 14 was 2 mg/kg, and the administration dose of the compounds of Examples 1, 15 and 39 to 42 was 30 mg/kg.
For the compounds of Examples 1 and 39, 0.1 ml of blood was taken at 0.25, 0.5, 1.0, 2.0, 4.0, 6.0, 8.0, 11.0 and 24.0 hours after the administration (from three animals per time point). The samples were stored in blood collection tubes treated with heparin (Sinopharm Chemical Reagent Co., Ltd.), and centrifuged for 10 minutes at 3500 rpm to separate the blood plasma. The blood plasma was stored at −20° C. The content of the test compound in the plasma of nude mouse after intragastrical administration of the test compound was determined. 25 μL of nude mouse plasma at each time point after the administration was taken, followed by the addition of 30 μL of the internal standard camptothecin solution (National Institutes for Food and Drug Control) (100 ng/mL) and 225 μL of acetonitrile. The resulting solution was vortex-mixed for 5 minutes, and centrifuged for 10 minutes (3700 to 4000 rpm). 0.1 to 0.5 μL of the supernatant was taken from the plasma samples for LC/MS/MS analysis.
For the compounds of Examples 14 and 15, 0.1 ml of blood was taken at 0.5, 1.0, 2.0, 4.0, 6.0, 8.0, 11.0 and 24.0 hours after the administration (from three animals per time point). The samples were stored in heparinized tubes, and centrifuged for 10 minutes at 3500 rpm to separate the blood plasma. The blood plasma was stored at −20° C. The content of the test compound in the plasma of nude mouse after intragastrical administration of the test compound was determined. 25 μL of nude mouse plasma at each time point after the administration was taken, followed by the addition of 30 μL of the internal standard camptothecin solution (100 ng/mL) and 200 μL of acetonitrile. The resulting solution was vortex-mixed for 5 minutes, and centrifuged for 10 minutes (3700 rpm). 0.25 to 1 μL of the supernatant was taken from the plasma samples for LC/MS/MS analysis.
For the compounds of Examples 40 to 42, 0.1 ml of blood was taken at 0.25, 0.5, 1.0, 2.0, 4.0, 6.0, 8.0, 11.0 and 24.0 hours after the administration (from three animals per time point). The samples were stored in tubes anticoagulated with EDTA-K2 (Shanghai Titan Scientific Co., Ltd.), and centrifuged for 1 minute at 10000 rpm and 4° C. The blood plasma was separated within one hour, and stored at −20° C. The process from blood collection to centrifugation was operated under an ice bath condition. The content of the test compound in the plasma of nude mouse after intragastrical administration of the test compound was determined. […]

[2] = test system: estrogen receptor reporter gene; experiment: Inhibition of estrogen receptor reporter gene activity (ERE-luc luciferase) in MCF7/ERE-luc cells; assay type: cell-based; settings: Homo sapiens, 0.1 nM β-estradiol, 20 hours, read-out: IC50 of inhibitory activity on the activity of the estrogen receptor reporter gene
Summary of the method: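 MCF7 cells stably carrying ERE-driven luciferase, in charcoal-stripped serum medium, were stimulated with 0.1 nM β-estradiol plus compound (nine 10-fold dilutions from 10 μM) for 20 h at 37° C. ONE-Glo luminescence was read, and IC50 was fitted from signal versus log concentration.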

CN(C)C(=O)/C=C/CNC1(COc2ccc(/C(=C(/CC(F)(F)F)c3ccccc3)c3ccc4[nH]nc(F)c4c3)cn2)CC1 [Example 39, (E)-N,N-Dimethyl-4-((1-(((5-((Z)-4,4,4-trifluoro-1-(3-fluoro-1H-indazol-5-yl)-2-phenylbut-1-en-1-yl)pyridin-2-yl)oxy)methyl)cyclopropyl)amino)but-2-enamide]
Vd/F ([1]; 30 mg/kg): 2.47 L/kg
AUC ([1]; 30 mg/kg): 16500 ng·h/mL
CL/F ([1]; 30 mg/kg): 30.3 mL/min/kg
half-life ([1]; 30 mg/kg): 0.94 h
Cmax ([1]; 30 mg/kg): 6600 ng/mL
MRT ([1]; 30 mg/kg): 1.57 h
IC50 [2]: 2 nM

O=C(/C=C/CNC1(COc2ccc(/C(=C(/CC(F)(F)F)c3ccccc3)c3ccc4[nH]nc(F)c4c3)cn2)CC1)N1CCOCC1 [Example 1, (E)-1-Morpholino-4-((1-(((5-((Z)-4,4,4-trifluoro-1-(3-fluoro-1H-indazol-5-yl)-2-phenylbut-1-en-1-yl)pyridin-2-yl)oxy)methyl)cyclopropyl)amino)but-2-en-1-one]
Vd/F ([1]; 30 mg/kg): 8.76 L/kg
AUC ([1]; 30 mg/kg): 9850 ng·h/mL
CL/F ([1]; 30 mg/kg): 50.8 mL/min/kg
half-life ([1]; 30 mg/kg): 1.99 h
Cmax ([1]; 30 mg/kg): 4280 ng/mL
MRT ([1]; 30 mg/kg): 1.6 h
IC50 [2]: 1 nM

CN(C)C(=O)/C=C/CN1CCC[C@@H](Oc2ccc(/C(=C(/CC(F)(F)F)c3ccccc3)c3ccc4[nH]nc(F)c4c3)cn2)C1 [Example 14, (E)-N,N-Dimethyl-4-((R)-3-((5-((Z)-4,4,4-trifluoro-1-(3-fluoro-1H-indazol-5-yl)-2-phenylbut-1-en-1-yl)pyridin-2-yl)oxy)piperidin-1-yl)but-2-enamide]
Vd/F ([1]; 2 mg/kg): 14.2 L/kg
AUC ([1]; 2 mg/kg): 205 ng·h/mL
bioavailability ([1]; 2 mg/kg, read-out: Bioavailability F): 24.8%
CL/F ([1]; 2 mg/kg): 163 mL/min/kg
half-life ([1]; 2 mg/kg): 1.01 h
Cmax ([1]; 2 mg/kg): 87 ng/mL
MRT ([1]; 2 mg/kg): 1.9 h
IC50 [2]: 2 nM

O=C(/C=C/CNC1(COc2ccc(/C(=C(/CC(F)(F)F)c3ccccc3)c3ccc4[nH]nc(F)c4c3)cn2)CC1)N1CC[C@H](O)C1 [Example 41, (E)-1-((S)-3-Hydroxypyrrolidin-1-yl)-4-((1-(((5-((Z)-4,4,4-trifluoro-1-(3-fluoro-1H-indazol-5-yl)-2-phenylbut-1-en-1-yl)pyridin-2-yl)oxy)methyl)cyclopropyl)amino)but-2-en-1-one]
Vd/F ([1]; 30 mg/kg): 14.4 L/kg
AUC ([1]; 30 mg/kg): 5020 ng·h/mL
CL/F ([1]; 30 mg/kg): 99.6 mL/min/kg
half-life ([1]; 30 mg/kg): 1.67 h
Cmax ([1]; 30 mg/kg): 2890 ng/mL
MRT ([1]; 30 mg/kg): 2.26 h
IC50 [2]: 3 nM

O=C(/C=C/CN1CCC[C@@H](Oc2ccc(/C(=C(/CC(F)(F)F)c3ccccc3)c3ccc4[nH]nc(F)c4c3)cn2)C1)N1CCCC1 [Example 15, (E)-1-(Pyrrolidin-1-yl)-4-((R)-3-((5-((Z)-4,4,4-trifluoro-1-(3-fluoro-1H-indazol-5-yl)-2-phenylbut-1-en-1-yl)pyridin-2-yl)oxy)piperidin-1-yl)but-2-en-1-one]
Vd/F ([1]; 30 mg/kg): 5.87 L/kg
AUC ([1]; 30 mg/kg): 6560 ng·h/mL
CL/F ([1]; 30 mg/kg): 76 mL/min/kg
half-life ([1]; 30 mg/kg): 0.89 h
Cmax ([1]; 30 mg/kg): 4570 ng/mL
MRT ([1]; 30 mg/kg): 1.41 h
IC50 [2]: 3 nM

O=C(/C=C/CNC1(COc2ccc(/C(=C(/CC(F)(F)F)c3ccccc3)c3ccc4[nH]nc(F)c4c3)cn2)CC1)N1CCO[C@@H](CO)C1 [Example 42, (E)-1-((R)-2-(Hydroxymethyl)morpholino)-4-((1-(((5-((Z)-4,4,4-trifluoro-1-(3-fluoro-1H-indazol-5-yl)-2-phenylbut-1-en-1-yl)pyridin-2-yl)oxy)methyl)cyclopropyl)amino)but-2-en-1-one]
Vd/F ([1]; 30 mg/kg): 11.5 L/kg
AUC ([1]; 30 mg/kg): 4510 ng·h/mL
CL/F ([1]; 30 mg/kg): 111 mL/min/kg
half-life ([1]; 30 mg/kg): 1.2 h
Cmax ([1]; 30 mg/kg): 2570 ng/mL
MRT ([1]; 30 mg/kg): 1.56 h
IC50 [2]: 0.7 nM

O=C(/C=C/CNC1(COc2ccc(/C(=C(/CC(F)(F)F)c3ccccc3)c3ccc4[nH]nc(F)c4c3)cn2)CC1)N1CC(O)C1 [Example 40, (E)-1-(3-Hydroxyazetidin-1-yl)-4-((1-(((5-((Z)-4,4,4-trifluoro-1-(3-fluoro-1H-indazol-5-yl)-2-phenylbut-1-en-1-yl)pyridin-2-yl)oxy)methyl)cyclopropyl)amino)but-2-en-1-one]
Vd/F ([1]; 30 mg/kg): 4.59 L/kg
AUC ([1]; 30 mg/kg): 11900 ng·h/mL
CL/F ([1]; 30 mg/kg): 42.1 mL/min/kg
half-life ([1]; 30 mg/kg): 1.26 h
Cmax ([1]; 30 mg/kg): 3560 ng/mL
MRT ([1]; 30 mg/kg): 2.3 h
IC50 [2]: 2 nM
